This is an account of results in US20240383875A1, “Benzimidazole Pyridine Derivatives” (Hoffmann-La Roche Inc., priority 2022, published 2024).

What all share (format): biochemical
Assay [1] addresses SIK1 (Homo sapiens, UniProt P57059). The experiment in a line: Enzymatic activity assay SIK1, RapidFire mass spectrometry (phosphorylation of CHK-peptide). As to conditions: RapidFire MS, inhibition of SIK1; read-out: SIK1 RF IC50. An outline of the steps: (§1)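 Human SIK1/2/3, 5/0.5/1.5 nM; 12.5 mM HEPES pH 7.0, 10 mM Mg acetate, 0.005% BSA. 30 min cpd pre-inc, + CHK-peptide (10 μM soln) + ATP (100 μM soln), 45 min RT. Formic acid stop; RF-MS phospho ratio; IC50.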

Assay [2] deals with SIK3 (Homo sapiens, UniProt Q9Y2K2). The experiment in a line: Enzymatic activity assay SIK3, RapidFire mass spectrometry (phosphorylation of CHK-peptide). As to conditions: RapidFire MS, inhibition of SIK3; read-out: SIK3 RF IC50. The essentials:
as §1

Assay [3] has as its target SIK2 (Homo sapiens, UniProt Q9H0K1). The assay can be described thus: Enzymatic activity assay SIK2, RapidFire mass spectrometry (phosphorylation of CHK-peptide). As to conditions: RapidFire MS, inhibition of SIK2; read-out: SIK2 RF IC50. An outline of the steps: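 Read-out is the summed phospho-species fraction of CHK-peptide by RapidFire mass spectrometry, normalized between DMSO and 1 μM YKL-05-099. The reaction used 0.5 nM SIK2, 100 μM ATP and 10 μM peptide solutions in HEPES pH 7.0/10 mM magnesium acetate for 45 min at ambient temperature.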

By IC50 is commonly meant the concentration needed to halve the response being measured.

Bounds are passed on as bounds.

Chain of SIK3 (Q9Y2K2 whole entry): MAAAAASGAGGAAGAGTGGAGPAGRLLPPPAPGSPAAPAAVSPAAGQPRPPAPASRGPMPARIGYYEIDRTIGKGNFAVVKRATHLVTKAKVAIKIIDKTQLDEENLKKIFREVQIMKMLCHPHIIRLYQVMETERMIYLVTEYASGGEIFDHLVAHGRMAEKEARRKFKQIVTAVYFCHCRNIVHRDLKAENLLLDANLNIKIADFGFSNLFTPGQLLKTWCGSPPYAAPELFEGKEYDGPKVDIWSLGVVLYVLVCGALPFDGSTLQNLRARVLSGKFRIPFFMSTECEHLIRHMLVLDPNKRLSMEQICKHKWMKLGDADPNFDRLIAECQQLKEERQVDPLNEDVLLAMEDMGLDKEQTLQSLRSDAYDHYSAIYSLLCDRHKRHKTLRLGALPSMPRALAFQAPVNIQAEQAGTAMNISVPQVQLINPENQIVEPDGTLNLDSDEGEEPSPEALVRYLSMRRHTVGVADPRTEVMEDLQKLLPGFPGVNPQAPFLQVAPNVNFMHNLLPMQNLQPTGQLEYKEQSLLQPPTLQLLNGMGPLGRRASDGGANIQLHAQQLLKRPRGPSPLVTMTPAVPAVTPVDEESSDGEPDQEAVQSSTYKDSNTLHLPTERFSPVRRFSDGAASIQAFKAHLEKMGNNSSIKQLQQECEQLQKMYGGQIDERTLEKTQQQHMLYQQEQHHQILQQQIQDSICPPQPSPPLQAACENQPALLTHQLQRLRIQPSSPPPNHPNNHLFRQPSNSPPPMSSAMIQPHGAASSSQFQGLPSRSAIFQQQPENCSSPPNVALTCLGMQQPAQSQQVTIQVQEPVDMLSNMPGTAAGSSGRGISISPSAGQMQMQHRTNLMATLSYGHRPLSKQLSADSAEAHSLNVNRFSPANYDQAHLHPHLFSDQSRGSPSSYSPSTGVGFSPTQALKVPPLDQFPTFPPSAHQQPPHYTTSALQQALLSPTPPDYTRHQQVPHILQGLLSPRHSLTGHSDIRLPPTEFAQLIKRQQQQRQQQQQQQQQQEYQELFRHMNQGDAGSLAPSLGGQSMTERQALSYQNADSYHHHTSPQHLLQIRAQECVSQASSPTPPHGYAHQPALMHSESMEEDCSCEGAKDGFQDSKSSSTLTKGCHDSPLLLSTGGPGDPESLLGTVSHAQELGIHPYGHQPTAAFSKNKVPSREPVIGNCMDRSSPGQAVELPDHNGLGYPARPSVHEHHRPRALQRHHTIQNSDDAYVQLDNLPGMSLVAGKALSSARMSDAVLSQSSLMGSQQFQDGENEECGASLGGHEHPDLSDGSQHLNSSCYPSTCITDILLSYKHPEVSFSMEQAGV
Chain of SIK1 (P57059 whole entry): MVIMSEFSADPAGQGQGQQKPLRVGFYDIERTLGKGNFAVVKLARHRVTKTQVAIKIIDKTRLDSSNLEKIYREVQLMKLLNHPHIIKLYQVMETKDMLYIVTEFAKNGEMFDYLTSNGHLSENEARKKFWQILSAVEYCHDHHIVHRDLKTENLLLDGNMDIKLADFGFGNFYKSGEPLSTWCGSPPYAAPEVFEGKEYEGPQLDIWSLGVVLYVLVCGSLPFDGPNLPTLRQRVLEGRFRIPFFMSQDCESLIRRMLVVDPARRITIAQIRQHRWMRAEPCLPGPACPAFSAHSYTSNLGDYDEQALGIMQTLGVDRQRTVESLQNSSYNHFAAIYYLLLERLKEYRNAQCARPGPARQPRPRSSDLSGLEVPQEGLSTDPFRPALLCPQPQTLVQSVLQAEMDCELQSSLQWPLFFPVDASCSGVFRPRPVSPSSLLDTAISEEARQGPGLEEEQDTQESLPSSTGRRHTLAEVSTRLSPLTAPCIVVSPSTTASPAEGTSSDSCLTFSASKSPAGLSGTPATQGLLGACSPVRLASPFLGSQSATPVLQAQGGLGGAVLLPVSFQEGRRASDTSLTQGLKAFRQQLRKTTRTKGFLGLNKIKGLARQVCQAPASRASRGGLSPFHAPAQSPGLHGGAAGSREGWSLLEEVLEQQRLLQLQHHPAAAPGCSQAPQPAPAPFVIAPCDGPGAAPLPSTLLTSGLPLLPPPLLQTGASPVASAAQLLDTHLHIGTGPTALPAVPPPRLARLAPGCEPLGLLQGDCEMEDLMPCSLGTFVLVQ
Chain of SIK2 (Q9H0K1 whole entry): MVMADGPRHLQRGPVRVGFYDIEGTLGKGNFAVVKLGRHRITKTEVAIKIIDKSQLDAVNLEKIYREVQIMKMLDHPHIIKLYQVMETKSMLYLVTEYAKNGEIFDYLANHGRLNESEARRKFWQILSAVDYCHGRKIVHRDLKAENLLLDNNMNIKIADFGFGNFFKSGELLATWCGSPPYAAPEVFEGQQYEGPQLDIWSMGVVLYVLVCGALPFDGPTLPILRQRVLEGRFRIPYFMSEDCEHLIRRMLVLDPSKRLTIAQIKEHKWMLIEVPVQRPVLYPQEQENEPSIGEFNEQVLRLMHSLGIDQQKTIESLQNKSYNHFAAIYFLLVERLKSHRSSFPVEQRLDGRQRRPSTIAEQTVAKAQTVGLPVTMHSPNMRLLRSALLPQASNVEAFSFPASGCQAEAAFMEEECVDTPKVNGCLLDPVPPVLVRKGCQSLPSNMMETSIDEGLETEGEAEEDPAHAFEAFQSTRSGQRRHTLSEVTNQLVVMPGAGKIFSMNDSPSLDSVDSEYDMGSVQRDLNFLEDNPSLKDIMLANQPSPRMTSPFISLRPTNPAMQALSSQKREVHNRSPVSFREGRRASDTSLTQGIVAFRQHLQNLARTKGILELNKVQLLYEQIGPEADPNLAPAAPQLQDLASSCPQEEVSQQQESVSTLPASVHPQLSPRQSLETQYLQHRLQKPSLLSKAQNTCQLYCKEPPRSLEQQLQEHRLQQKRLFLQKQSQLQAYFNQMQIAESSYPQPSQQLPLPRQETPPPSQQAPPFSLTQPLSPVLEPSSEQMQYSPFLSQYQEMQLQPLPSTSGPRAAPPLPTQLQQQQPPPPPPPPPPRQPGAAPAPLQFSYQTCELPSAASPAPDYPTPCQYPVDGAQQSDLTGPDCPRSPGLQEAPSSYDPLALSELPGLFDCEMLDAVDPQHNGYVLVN

Consider `COc1cc(C)n(-c2nc(-n3cnc4cc(Nc5ccc(C)nn5)ccc43)ccc2CO)n1` [Example 158, [2-(3-methoxy-5-methyl-pyrazol-1-yl)-6-[5-[(6-methylpyridazin-3-yl)amino]benzimidazol-1-yl]-3-pyridyl]methanol], for which the IC50 in assay [1] was 2150 nM; in assay [2] it was 12.8 nM; in assay [3], 41.9 nM.

`Cc1ccc(Nc2ccc3c(c2)ncn3-c2ccc(C(C)O)c(-c3c(C)noc3C)n2)nn1` (stereo not drawn) [Example 159, 1-[2-(3,5-Dimethylisoxazol-4-yl)-6-[5-[(6-methylpyridazin-3-yl)amino]benzimidazol-1-yl]-3-pyridyl]ethanol]: the IC50 in assay [1] was determined as 23800 nM; in assay [2], 70.2 nM; in assay [3], 306 nM.

In the case of `COc1ccnnc1Nc1ccc2c(c1)ncn2-c1ccc(C(C)O)c(-n2nc(C#N)cc2C)n1` (stereo not drawn) [Example 160, 1-[3-(1-Hydroxyethyl)-6-[5-[(4-methoxypyridazin-3-yl)amino]benzimidazol-1-yl]-2-pyridyl]-5-methyl-pyrazole-3-carbonitrile], the concentration for half-maximal inhibition (IC50) in assay [1] turned out to be 223 nM; in assay [2], 1.2 nM; in assay [3] it was 3.2 nM.

Take `Cc1cc(C#N)nn1-c1nc(-n2cnc3cc(NC4CC(=O)N(C)C4)ccc32)ccc1C(C)O` (stereo not drawn) [Example 161, 1-[3-(1-Hydroxyethyl)-6-[5-[(5-keto-1-methyl-pyrrolidin-3-yl)amino]benzimidazol-1-yl]-2-pyridyl]-5-methyl-pyrazole-3-carbonitrile]: the IC50 in assay [1] was 450 nM; in assay [2] it was 66.1 nM; in assay [3], 181 nM.

Consider `Cc1ccc(Nc2ccc3c(c2)ncn3-c2ccc(C(C)O)c(-c3ccncc3C)n2)nn1` (stereo not drawn) [Example 162, 1-[6-[5-[(6-Methylpyridazin-3-yl)amino]benzimidazol-1-yl]-2-(3-methyl-4-pyridyl)-3-pyridyl]ethanol], for which the IC50 was 8570 nM in assay [1], 46.9 nM in assay [2] and 198 nM in assay [3].

Turning to `Cc1ccc(Nc2ccc3c(c2)ncn3-c2ccc(C(C)O)c(-c3cncnc3NC3CC3)n2)nn1` (stereo not drawn) [Example 163, 1-[2-[4-(Cyclopropylamino)pyrimidin-5-yl]-6-[5-[(6-methylpyridazin-3-yl)amino]benzimidazol-1-yl]-3-pyridyl]ethanol], the IC50 is more than 30000 nM in assay [1], 181 nM in assay [2] and 964 nM in assay [3].

Take `Cc1ccc(Nc2ccc3c(c2)ncn3-c2ccc(C(C)O)c(-c3cnc(O)cc3C(F)(F)F)n2)nn1` (stereo not drawn) [Example 164, 5-[3-(1-Hydroxyethyl)-6-[5-[(6-methylpyridazin-3-yl)amino]benzimidazol-1-yl]-2-pyridyl]-4-(trifluoromethyl)pyridin-2-ol]: the IC50 in assay [1] was more than 30000 nM; in assay [2] it was 963 nM; in assay [3], 3300 nM.

Consider `Cc1ccc(Nc2ccc3c(c2)ncn3-c2ccc(C(C)O)c(-c3cnn4c3C(=O)NCC4)n2)nn1` (stereo not drawn) [Example 165, 3-[3-(1-Hydroxyethyl)-6-[5-[(6-methylpyridazin-3-yl)amino]benzimidazol-1-yl]-2-pyridyl]-6,7-dihydro-5H-pyrazolo[1,5-a]pyrazin-4-one], for which the IC50 in assay [1] amounted to 13300 nM; in assay [2], 95.5 nM; in assay [3], 359 nM.

As to `Cc1cc(C#N)nn1-c1nc(-n2cnc3cc(N[C@H]4CNC[C@H]4F)c(F)cc32)ccc1C(C)O` (stereo partly drawn) [Example 166, 1-[6-[6-Fluoro-5-[[(3S,4R)-4-fluoropyrrolidin-3-yl]amino]benzimidazol-1-yl]-3-(1-hydroxyethyl)-2-pyridyl]-5-methyl-pyrazole-3-carbonitrile; formic acid], the values for the IC50 in assay [1], in assay [2] and in assay [3] were 681 nM, 40.8 nM and 83.2 nM, respectively.

With `Cc1ccc(Nc2ccc3c(c2)ncn3-c2ccc(C(C)O)c(-c3cc(OC(F)F)ncc3C)n2)nn1` (stereo not drawn) [Example 167, 1-[2-[2-(Difluoromethoxy)-5-methyl-4-pyridyl]-6-[5-[(6-methylpyridazin-3-yl)amino]benzimidazol-1-yl]-3-pyridyl]ethanol], the IC50 in assay [1] was found to be 40 nM; in assay [2], 1.2 nM; in assay [3] it was 0.9 nM.

Consider `Cc1ccc(Nc2ccc3c(c2)ncn3-c2ccc(C(C)O)c(-c3cc(F)ncc3C)n2)nn1` (stereo not drawn) [Example 168, 1-[2-(2-Fluoro-5-methyl-4-pyridyl)-6-[5-[(6-methylpyridazin-3-yl)amino]benzimidazol-1-yl]-3-pyridyl]ethanol], for which the IC50 is 1760 nM in assay [1], 8.6 nM in assay [2] and 39.9 nM in assay [3].

Regarding `Cc1ccc(Nc2ccc3ncn(-c4ccc(C(C)O)c(-n5cc(C)c(C#N)n5)n4)c3c2)nn1` (stereo not drawn) [Example 169, 1-[3-(1-Hydroxyethyl)-6-[6-[(6-methylpyridazin-3-yl)amino]benzimidazol-1-yl]-2-pyridyl]-4-methyl-pyrazole-3-carbonitrile; formic acid], the IC50 turned out to be 613 nM in assay [1], 85.2 nM in assay [2] and 135 nM in assay [3].

In the case of `Cc1ccc(Nc2ccc3c(c2)ncn3-c2ccc(C(C)O)c(-n3cc(C)c(C#N)n3)n2)nn1` (stereo not drawn) [Example 170, 1-[3-(1-Hydroxyethyl)-6-[5-[(6-methylpyridazin-3-yl)amino]benzimidazol-1-yl]-2-pyridyl]-4-methyl-pyrazole-3-carbonitrile; formic acid], the IC50 turned out to be 216 nM in assay [1], 1 nM in assay [2] and 2.1 nM in assay [3].

With `Cc1ccc(Nc2ccc3c(c2)ncn3-c2ccc(C(C)O)c(-n3nc(C(F)(F)F)c4c3CCN(C)C4)n2)nn1` (stereo not drawn) [Example 171, 1-[6-[5-[(6-Methylpyridazin-3-yl)amino]benzimidazol-1-yl]-2-[5-methyl-3-(trifluoromethyl)-6,7-dihydro-4H-pyrazolo[4,3-c]pyridin-1-yl]-3-pyridyl]ethanol; formic acid], the values for the IC50 in assay [1], in assay [2] and in assay [3] were 9 nM, 0.7 nM and 0.3 nM, respectively.

Regarding `Cc1ccc(Nc2ccc3ncn(-c4ccc(C(C)O)c(N(C)CC5(C#N)CC5)n4)c3c2)nn1` (stereo not drawn) [Example 172, 1-[[[3-(1-hydroxyethyl)-6-[6-[(6-methylpyridazin-3-yl)amino]benzimidazol-1-yl]-2-pyridyl]-methyl-amino]methyl]cyclopropanecarbonitrile], the IC50 was determined as 2620 nM in assay [1], 1850 nM in assay [2] and 2090 nM in assay [3].

Take `Cc1ccc(Nc2ccc3c(c2)ncn3-c2ccc(C(C)O)c(N(C)CC3(C#N)CC3)n2)nn1` (stereo not drawn) [Example 173, 1-[[[3-(1-Hydroxyethyl)-6-[5-[(6-methylpyridazin-3-yl)amino]benzimidazol-1-yl]-2-pyridyl]-methyl-amino]methyl]cyclopropanecarbonitrile]: the IC50 is 3490 nM in assay [1], 53.9 nM in assay [2] and 198 nM in assay [3].

Turning to `Cc1ccc(Nc2ccc3c(c2)ncn3-c2ccc(C(C)O)c(-c3cc(F)cnc3Cl)n2)nn1` (stereo not drawn) [Example 174, 1-[2-(2-Chloro-5-fluoro-3-pyridyl)-6-[5-[(6-methylpyridazin-3-yl)amino]benzimidazol-1-yl]-3-pyridyl]ethanol; formic acid], the IC50 in assay [1] stood at 12100 nM; in assay [2], 29 nM; in assay [3] it was 151 nM.

As for `Cc1ccc(Nc2ccc3c(c2)ncn3-c2ccc(C(C)O)c(-n3nc(C(F)(F)F)c4c3CCN(C3COC3)C4)n2)nn1` (stereo not drawn) [Example 177, 1-[6-[5-[(6-Methylpyridazin-3-yl)amino]benzimidazol-1-yl]-2-[5-(oxetan-3-yl)-3-(trifluoromethyl)-6,7-dihydro-4H-pyrazolo[4,3-c]pyridin-1-yl]-3-pyridyl]ethanol], the IC50 turned out to be 253 nM in assay [1], 3.1 nM in assay [2] and 2.8 nM in assay [3].

Consider `Cc1ccc(Nc2ccc3ncn(-c4ccc(C(C)O)c(-n5cc(C#N)c(C)n5)n4)c3c2)nn1` (stereo not drawn) [Example 178, 1-[3-(1-Hydroxyethyl)-6-[6-[(6-methylpyridazin-3-yl)amino]benzimidazol-1-yl]-2-pyridyl]-3-methyl-pyrazole-4-carbonitrile], for which the IC50 in assay [1] stood at 27000 nM; in assay [2], 10000 nM; in assay [3], 6340 nM.

For the compound `CNc1ncccc1-c1nc(-n2cnc3cc(Nc4ccc(C)nn4)ccc32)ccc1C(C)O` (stereo not drawn) [Example 179, 1-[2-[2-(Methylamino)-3-pyridyl]-6-[5-[(6-methylpyridazin-3-yl)amino]benzimidazol-1-yl]-3-pyridyl]ethanol; formic acid], the IC50 in assay [1] is more than 30000 nM; in assay [2], 74.3 nM; in assay [3], 414 nM.

In the case of `Cc1ccc(Nc2ccc3c(c2)ncn3-c2ccc(C(C)O)c(-n3cc(C#N)c(C)n3)n2)nn1` (stereo not drawn) [Example 182, 1-[3-(1-Hydroxyethyl)-6-[5-[(6-methylpyridazin-3-yl)amino]benzimidazol-1-yl]-2-pyridyl]-3-methyl-pyrazole-4-carbonitrile], the IC50 was found to be 15400 nM in assay [1], 25.7 nM in assay [2] and 88.9 nM in assay [3].

As to `Cc1ccc(Nc2ccc3c(c2)ncn3-c2ccc(C(C)O)c(N3CC(C)(C#N)C3)n2)nn1` (stereo not drawn) [Example 183, 1-[3-(1-Hydroxyethyl)-6-[5-[(6-methylpyridazin-3-yl)amino]benzimidazol-1-yl]-2-pyridyl]-3-methyl-azetidine-3-carbonitrile], the IC50 in assay [1] turned out to be 2830 nM; in assay [2], 17.5 nM; in assay [3] it was 94.5 nM.
